Source: the Deep4Chem optical property database

Assay: photoluminescence quantum yield (fraction); solvent given as SMILES

Which photoluminescence quantum yield (in C1CCOC1) does the source give for `CCCCCCCCCCCCN1C(=O)c2cccc3c(N(Cc4ccccn4)Cc4ccccn4)c4ccccc4c(c23)C1=O` here?
Its photoluminescence quantum yield is 0.07.

And the photoluminescence quantum yield (in CCCCCC)?
Its photoluminescence quantum yield is 0.06.

And the photoluminescence quantum yield (in CCO)?
Its photoluminescence quantum yield is 0.1.

And the photoluminescence quantum yield (in Cc1ccccc1)?
Its photoluminescence quantum yield is 0.06.

And the photoluminescence quantum yield (in ClCCl)?
Its photoluminescence quantum yield is 0.12.

For `c1ccc(C2=C(c3ccccc3)c3cccc4c5c(cc(c34)O2)=NC2CCCCC2N=5)cc1` (stereo not given), which photoluminescence quantum yield (in ClCCl) is on record?
The photoluminescence quantum yield was 0.52.

For `COc1ccc(/C=C/C=C/C=C/c2ccc([N+](=O)[O-])cc2)cc1`, which photoluminescence quantum yield (in C1CCOC1) is on record?
The photoluminescence quantum yield was 0.44.

What about the photoluminescence quantum yield (in C1COCCO1) of the same molecule?
Its photoluminescence quantum yield is 0.57.

And the photoluminescence quantum yield (in CC1CCCCC1)?
The photoluminescence quantum yield was 0.21.

What about the photoluminescence quantum yield (in CC#N) of the same molecule?
The photoluminescence quantum yield was 0.013.

What about the photoluminescence quantum yield (in CO) of the same molecule?
The photoluminescence quantum yield was 0.002.

What about the photoluminescence quantum yield (in CS(C)=O) of the same molecule?
The photoluminescence quantum yield was 0.03.

What about the photoluminescence quantum yield (in Cc1ccccc1) of the same molecule?
Its photoluminescence quantum yield is 0.63.

What about the photoluminescence quantum yield (in ClC(Cl)Cl) of the same molecule?
The photoluminescence quantum yield was 0.14.

And the photoluminescence quantum yield (in ClCCl)?
Its photoluminescence quantum yield is 0.074.

Which photoluminescence quantum yield (in ClC(Cl)Cl) does the source give for `CCN(CC)c1ccc2cc(-c3ccc(-c4ccc5ccc6c(-c7ccc(-c8cc9ccc(N(CC)CC)cc9oc8=O)cc7)ccc7ccc4c5c76)cc3)c(=O)oc2c1` here?
Its photoluminescence quantum yield is 0.893.

For `CCOC(=O)c1sc(-c2ccc(-c3cc(-c4cccs4)c(C(=O)OCC)s3)s2)cc1-c1cccs1`, which photoluminescence quantum yield (in ClCCl) is on record?
The photoluminescence quantum yield was 0.18.

For `CCCCN(CCCC)c1ccc2c(c1)C#CC#Cc1cc(C(F)(F)F)ccc1C#Cc1cc(c3cc1C#Cc1ccc(C(F)(F)F)cc1C#CC#Cc1cc(N(CCCC)CCCC)ccc1C#C3)C#C2`, which photoluminescence quantum yield (in ClCCl) is on record?
Its photoluminescence quantum yield is 0.23.

Which photoluminescence quantum yield (in ClCCl) does the source give for `COc1cc2c(cc1OC)C1=C[C@H](c3ccc(Cl)cc3)C3(C(C#N)=C(C#N)N1CC2)c1cc(Br)ccc1-c1ccc(Br)cc13` here?
Its photoluminescence quantum yield is 0.00019.

With `COc1ccc(C#Cc2c3ccccc3c(C#Cc3ccc(OC)cc3)c3cc4sc(C)cc4cc23)cc1` as the molecule, how does the photoluminescence quantum yield (in ClCCl) read?
Its photoluminescence quantum yield is 0.75.

For `C1=[N+]2N=C(c3ccccc3)O[B-]2(c2ccc([B-]34OC(c5ccccc5)=N[N+]3=Cc3c(ccc5ccccc35)O4)cc2)Oc2ccc3ccccc3c21` (stereo not given), which photoluminescence quantum yield (in C1CCOC1) is on record?
Its photoluminescence quantum yield is 0.002.

For `Cc1ccc(C(=O)/N=c2\oc3cccc4c5c(-c6ccccc6)oc6cccc(c(c2-c2ccccc2)c34)c65)cc1`, which photoluminescence quantum yield (in ClC(Cl)Cl) is on record?
Its photoluminescence quantum yield is 0.17.

What does the source list for `Cc1cc(C)c(C2=C3C=C(c4ccc(C(C)(C)C)cc4)C(c4ccc(C(C)(C)C)cc4)=[N+]3[B-](F)(F)n3c2cc(-c2ccc(C(C)(C)C)cc2)c3-c2ccc(C(C)(C)C)cc2)c(C)c1`?
photoluminescence quantum yield (in C1CCCCC1): 0.77; photoluminescence quantum yield (in C1CCOC1): 0.96; photoluminescence quantum yield (in CC#N): 0.62; photoluminescence quantum yield (in Cc1ccccc1): 0.78; photoluminescence quantum yield (in ClCCl): 0.74

For `CCCCCCCCCCCCCCCCCCN1C(=O)c2ccc3c4ccc5c6c(ccc(c7ccc(c2c37)C1=O)c64)C(=O)N(CCCCCCCCCCCCCCCCCC)C5=O`, which photoluminescence quantum yield (in CN(C)C=O) is on record?
Its photoluminescence quantum yield is 0.8.

For `Cc1ccccc1-c1cc(-c2ccc(N3c4ccccc4C(C)(C)c4ccccc43)cc2)nc(-c2ccccc2)n1`, which photoluminescence quantum yield (in CC#N) is on record?
The photoluminescence quantum yield was 0.101.

What about the photoluminescence quantum yield (in Cc1ccccc1) of the same molecule?
The photoluminescence quantum yield was 0.777.

What about the photoluminescence quantum yield (in ClCCl) of the same molecule?
Its photoluminescence quantum yield is 0.884.

For `CC1(C)c2ccccc2N(c2ccc3c(c2)c2cc(N4c5ccccc5C(C)(C)c5ccccc54)ccc2c2nc(C#N)c(C#N)nc32)c2ccccc21`, which photoluminescence quantum yield (in Cc1ccccc1) is on record?
The photoluminescence quantum yield was 0.12.

What about the photoluminescence quantum yield (in O=P(c1ccccc1)(c1ccccc1)c1cccc(-c2cc(-n3c4ccccc4c4ccccc43)cc(-n3c4ccccc4c4ccccc43)c2)n1) of the same molecule?
The photoluminescence quantum yield was 0.33.

For `CC[N+]1(CC)CN2C(=N1)C(C(=O)O)=Cc1cc(OC)ccc12`, which photoluminescence quantum yield (in O) is on record?
Its photoluminescence quantum yield is 0.509.

Which photoluminescence quantum yield (in CC#N) does the source give for `CCCSC1=[N+]2C(=C(c3ccccc3)c3ccc(SCCC)n3[B-]2(F)F)C=C1` here?
Its photoluminescence quantum yield is 0.44.

What about the photoluminescence quantum yield (in CCCCCC) of the same molecule?
The photoluminescence quantum yield was 0.34.

And the photoluminescence quantum yield (in CCOC(C)=O)?
Its photoluminescence quantum yield is 0.36.

What about the photoluminescence quantum yield (in CO) of the same molecule?
Its photoluminescence quantum yield is 0.42.

And the photoluminescence quantum yield (in ClCCl)?
Its photoluminescence quantum yield is 0.43.

Which photoluminescence quantum yield (in CCO) does the source give for `CC1(C)CC(/C=C/c2ccc(-n3cccn3)cc2)=CC(=C(C#N)C#N)C1` here?
The photoluminescence quantum yield was 0.0001.

Which photoluminescence quantum yield (in CC#N) does the source give for `CCN(CC)c1ccc(/C=N/CC/N=C/c2ccc(N(CC)CC)cc2O)c(O)c1` here?
Its photoluminescence quantum yield is 0.13.

For `CC(C)(C)NC(=O)c1ccc(C(=O)NC(C)(C)C)c2c1c1c3ccc(Cl)cc3c3cc(Cl)ccc3c1c1c3ccc(Cl)cc3c3cc(Cl)ccc3c21`, which photoluminescence quantum yield (in ClCCl) is on record?
The photoluminescence quantum yield was 0.07.

Which photoluminescence quantum yield (in CN(C)C=O) does the source give for `c1ccc2c(c1)[nH]c1c3[nH]c4ccccc4c3c3nsnc3c21` here?
Its photoluminescence quantum yield is 0.05.

And the photoluminescence quantum yield (in Cc1ccccc1)?
The photoluminescence quantum yield was 0.07.

What about the photoluminescence quantum yield (in ClCCl) of the same molecule?
Its photoluminescence quantum yield is 0.06.
